This note sets out measurements from patent publication US4400517A, “Phosphoric esters derived from 1,2,4-triazole having an insecticidal, nematocidal and acaricidal action, and their preparation” (priority 1976, dated 1983).

The structures appear in SMILES notation.

The test system of one experiment is Spodoptera littoralis. In words: Biological activity on Spodoptera littoralis (Lepidoptera). The format is in vivo. To be noted: 48 h, 1%o, Table 5, read-out: Activity (mortality class), Spodoptera L. How it is done:
(7) Biological activity on Spodoptera littoralis (Lepidoptera)
Cut tobacco leaves were sprinkled with an aqueous dispersion of the products under examination (see Tables 4 and 5).
After drying, the leaves were infested with 5-day old larvae.
The percentage of mortality of the larvae was determined after 48 hours from treatment (untreated leaves, mortality=0).
Consider `CCOP(=S)(OCC)Oc1nc(C(C)O)nn1-c1ccccc1` (stereo not drawn) [M 7853], for which the mortality at 0.1 % was determined as 100%.
For the molecule `CCOP(=S)(OCC)Oc1nc(C(C)OC(=O)C=C(Cl)Cl)nn1-c1ccccc1` (stereo not drawn) [M 8086], the mortality at 0.1 % was 100%.
For the molecule `CCOP(=S)(Oc1nc(C=C(Cl)Cl)nn1C)N(C)C` (stereo not drawn) [M 9643], the mortality at 0.1 % turned out to be 100%.
With `CCOP(=S)(OCC)Oc1nc(C(C)OC(C)=O)nn1-c1ccccc1` (stereo not drawn) [M 8084], the mortality at 0.1 % is 100%.

The same experiment, now with this note: 48 h, read-out: Activity (mortality class), Spodoptera L.
For `CCOP(=S)(OCC)Oc1nc(C=C(Cl)SC)nn1C` [M 8805], the mortality at 0.005 % came out at 100% and the mortality at 0.1 % was found to be 100%.

Another experiment concerns Tetranychus urticae. In words: Biological activity on adults of Tetranychus urticae (Acari). Format: in vivo. To be noted: 24 h, 0.01%o, Table 5, read-out: Activity (mortality class), Tetranychus U. (adults). The method, then:
(5) Biological activity on adults of Tetranychus urticae (Acari)
Discs of bean leaves were infested with adult acari and then sprinkled with an aqueous dispersion of the products under examination (see Tables 4 and 5).
The mortality percentage was determined after 24 hours from treatment (untreated leaf discs, mortality=0).
With `CCOP(=S)(OCC)Oc1nc(C=C(Cl)Cl)nn1Cc1ccccc1` [M 8827], the mortality at 0.001 % lay within 10 to 69%.
On to `CCOP(=S)(OCC)Oc1nc(C=C(Cl)SC)nn1C` [M 8805], for which the mortality at 0.001 % amounted to 100%.
As for `CCOP(=S)(OCC)Oc1nc(C(C)OC(C)=O)nn1-c1ccccc1` (stereo not drawn) [M 8084], the mortality at 0.001 % lay in the range of 10 to 69%.
Same read-out and setting: the result for `C#CCn1nc(C=C(Cl)Cl)nc1OP(=S)(OCC)OCC` [M 8828] reads 70 to 99%.

The same experiment, now with this note: 24 h, 1%o, Table 5, read-out: Activity (mortality class), Tetranychus U. (adults).
For `CCOP(=S)(OCC)Oc1nc(C=C(Cl)Cl)nn1Cc1ccccc1` [M 8827], the mortality at 0.1 % is 100%.
The same measure, in the same setting: the result for `CCOC(=O)c1nc(OP(=S)(OCC)OCC)n(-c2ccccc2)n1` [M 8257] reads 70 to 99%; that for `CCOP(=S)(OCC)Oc1nc(C(C)O)nn1-c1ccccc1` (stereo not drawn) [M 7853], 100%.
For the molecule `CCOP(=S)(OCC)Oc1nc(C=C(Cl)SC)nn1C` [M 8805], the mortality at 0.1 % was found to be 100%.
As to `CCOP(=S)(OCC)Oc1nc(C(C)OC(=O)C=C(Cl)Cl)nn1-c1ccccc1` (stereo not drawn) [M 8086], the mortality at 0.1 % came to 100%.
On the same count and under the same terms, the result for `CCOP(=S)(Oc1nc(C=C(Cl)Cl)nn1C)N(C)C` (stereo not drawn) [M 9643] reads 100%; that for `CCOP(=S)(OCC)Oc1nc(C(=O)c2ccccc2)nn1-c1ccccc1` [M 7480], 100%; that for `CCOP(=S)(OCC)Oc1nc(C(C)OC(C)=O)nn1-c1ccccc1` (stereo not drawn) [M 8084], 100%.
As to `CCOP(=S)(Oc1nc(C=C(Cl)Cl)nn1C)c1ccccc1` (stereo not drawn) [M 9579], the mortality at 0.1 % worked out at 100%.
In the case of `C#CCn1nc(C=C(Cl)Cl)nc1OP(=S)(OCC)OCC` [M 8828], the mortality at 0.1 % stood at 100%.
Still for that read-out and setting: the result for `CCOP(=S)(OCC)Oc1nc(C(C)N(C)C)nn1-c1ccccc1` (stereo not drawn) [M 8171] reads 70 to 99%.

The next experiment deals with Blatta orientalis. In words: Biological activity on Blatta orientalis (Ortoptera). The format is in vivo. The following applies: Blatta orientalis, 48 h, read-out: Activity (mortality class), Blatta O. The method, then: (10) Biological activity on Blatta orientalis (Ortoptera)
The bottom and walls of glass crystallizers were treated uniformly with an acetonic solution of the products under examination (see Tables 4 and 5). After evaporation of the solvent, into each crystallizer were introduced ten 80-100 days old neanides. The crystallizers were then closed with a metal net cover. After 24 hours from the start of the treatment, the insects were transferred to similar untreated crystallizers, and there were appropriately nourished in conventional manner.
The percentage of mortality (untreated insects=0) was determined after 48 hours from the start of the treatment.
Turning to `CCOP(=S)(OCC)Oc1nc(C=C(Cl)SC)nn1C` [M 8805], the mortality at 0.01 g/m2 was 10 to 69% and the mortality at 1 g/m2 was 100%.

Still in this experiment, the particulars now being: Blatta orientalis, 48 h; 1 g/m^2; Table 5; read-out: Activity (mortality class), Blatta O.
With `CCOC(=O)c1nc(OP(=S)(OCC)OCC)n(-c2ccccc2)n1` [M 8257], the mortality at 1 g/m2 was in the range of 10 to 69%.
Same read-out and setting: the result for `CCOP(=S)(OCC)Oc1nc(C(C)O)nn1-c1ccccc1` (stereo not drawn) [M 7853] reads 10 to 69%; that for `C#CCn1nc(C=C(Cl)Cl)nc1OP(=S)(OCC)OCC` [M 8828], 100%.

The test system of another experiment is Leptinotarsa decemlineata. In words: Biological activity on Leptinotarsa decemlineata (Coleoptera). Format: in vivo. To be noted: 48 h, 0.05%o, Table 5, read-out: Activity (mortality class), Leptinotarsa D. How it is done:
(3) Biological activity on Leptinotarsa decemlineata (Coleoptera)
Small potato plants grown in pots were infested with 4-day old larvae, and were then sprinkled with an aqueous dispersion of the products under examination (see Tables 4 and 5).
The mortality percentage (untreated small plants=0) was determined after 48 hours from treatment.
Consider `CCOP(=S)(OCC)Oc1nc(C=C(Cl)SC)nn1C` [M 8805], for which the mortality at 0.005 % came out at 100%.

Still in this experiment, the particulars now being: 48 h, 1%o, Table 5, read-out: Activity (mortality class), Leptinotarsa D.
On to `CCOP(=S)(OCC)Oc1nc(C=C(Cl)Cl)nn1Cc1ccccc1` [M 8827], for which the mortality at 0.1 % was found to be 100%.
Same read-out and setting: the same measure for `CCOC(=O)c1nc(OP(=S)(OCC)OCC)n(-c2ccccc2)n1` [M 8257]: 10 to 69%; for `CCOP(=S)(OCC)Oc1nc(C(C)O)nn1-c1ccccc1` (stereo not drawn) [M 7853]: 100%.
The same measure, in the same setting: the result for `CCOP(=S)(OCC)Oc1nc(C=C(Cl)SC)nn1C` [M 8805] reads 100%; that for `CCOP(=S)(OCC)Oc1nc(C(C)OC(=O)C=C(Cl)Cl)nn1-c1ccccc1` (stereo not drawn) [M 8086], 100%.
For the molecule `CCOP(=S)(OCC)Oc1nc(C(C)OC(C)=O)nn1-c1ccccc1` (stereo not drawn) [M 8084], the mortality at 0.1 % was found to be 100%.
The same measure, in the same setting: the result for `C#CCn1nc(C=C(Cl)Cl)nc1OP(=S)(OCC)OCC` [M 8828] reads 100%.

Another experiment relates to Pieris brassicae. Briefly: Biological activity on Pieris brassicae (Lepidoptera). Format: in vivo. To be noted: 48 h, 1%o, Table 5, read-out: Activity (mortality class), Pieris B. How it is done: (2) Biological activity on Pieris brassicae (Lepidotera)
Cut-off cauliflower leaves were sprinkled with an aqueous dispersion of the products under examination (see TABLE 5).
After drying, the leaves were infested with 5-day old larvae. The percentage of mortality of the larvae (untreated leaves=0) was determined after 48 hours from treatment.
On to `CCOC(=O)c1nc(OP(=S)(OCC)OCC)n(-c2ccccc2)n1` [M 8257], for which the mortality at 0.1 % lay within 70 to 99%.
As to `CCOP(=S)(OCC)Oc1nc(C(C)O)nn1-c1ccccc1` (stereo not drawn) [M 7853], the mortality at 0.1 % amounted to 100%.
Regarding `CCOP(=S)(OCC)Oc1nc(C(C)OC(=O)C=C(Cl)Cl)nn1-c1ccccc1` (stereo not drawn) [M 8086], the mortality at 0.1 % came to 100%.
On the same count and under the same terms, the result for `CCOP(=S)(OCC)Oc1nc(C(C)OC(C)=O)nn1-c1ccccc1` (stereo not drawn) [M 8084] reads 100%; that for `C#CCn1nc(C=C(Cl)Cl)nc1OP(=S)(OCC)OCC` [M 8828], 100%.

The experiment is the same for the next values; noted with them: 48 h, read-out: Activity (mortality class), Pieris B.
Take `CCOP(=S)(OCC)Oc1nc(C=C(Cl)SC)nn1C` [M 8805]: the mortality at 0.001 % lay in the range of 10 to 69% and the mortality at 0.1 % came out at 100%.

A further experiment has as its system Culex pipiens. Briefly: Biological activity on Culex pipiens larvae (Diptera). To be noted: 24 h, 0.02 ppm, Table 5, read-out: Activity (mortality class), Culex P. (larvae). The format is in vivo. The method, then:
(4) Biological activity on Culex pipiens (Diptera)
Into glasses containing an aqueous dispersion of the products under examination (see Tables 4 and 5) there were introduced mosquito larvae of third and fourth age.
The mortality percentage of the larvae (glasses containing pure water=0) was determined after 24 hours from treatment.
As to `CCOP(=S)(OCC)Oc1nc(C=C(Cl)Cl)nn1Cc1ccccc1` [M 8827], the mortality at 0.02 ppm lay within 10 to 69%.
In the case of `CCOP(=S)(OCC)Oc1nc(C=C(Cl)SC)nn1C` [M 8805], the mortality at 0.02 ppm is 100%.
For `C#CCn1nc(C=C(Cl)Cl)nc1OP(=S)(OCC)OCC` [M 8828], the mortality at 0.02 ppm is 10 to 69%.

Staying with this experiment, now noted: 24 h, 2 ppm, Table 5, read-out: Activity (mortality class), Culex P. (larvae).
In the case of `CCOP(=S)(OCC)Oc1nc(C=C(Cl)Cl)nn1Cc1ccccc1` [M 8827], the mortality at 2 ppm worked out at 100%.
On the same count and under the same terms, the result for `CCOC(=O)c1nc(OP(=S)(OCC)OCC)n(-c2ccccc2)n1` [M 8257] reads 70 to 99%.
Still for that read-out and setting: the same measure for `CCOP(=S)(OCC)Oc1nc(C(C)O)nn1-c1ccccc1` (stereo not drawn) [M 7853]: 100%.
On the same count and under the same terms, the result for `CCOP(=S)(OCC)Oc1nc(C=C(Cl)SC)nn1C` [M 8805] reads 100%.
Consider `CCOP(=S)(OCC)Oc1nc(C(C)OC(=O)C=C(Cl)Cl)nn1-c1ccccc1` (stereo not drawn) [M 8086], for which the mortality at 2 ppm was 100%.
For the molecule `CCOP(=S)(OCC)Oc1nc(C(=O)c2ccccc2)nn1-c1ccccc1` [M 7480], the mortality at 2 ppm lay within 10 to 69%.
Still for that read-out and setting: the same measure for `CCOP(=S)(OCC)Oc1nc(C(C)OC(C)=O)nn1-c1ccccc1` (stereo not drawn) [M 8084]: 100%; for `CCOP(=S)(Oc1nc(C=C(Cl)Cl)nn1C)c1ccccc1` (stereo not drawn) [M 9579]: 100%.
Regarding `C#CCn1nc(C=C(Cl)Cl)nc1OP(=S)(OCC)OCC` [M 8828], the mortality at 2 ppm amounted to 100%.
For the molecule `CCOP(=S)(OCC)Oc1nc(C(C)N(C)C)nn1-c1ccccc1` (stereo not drawn) [M 8171], the mortality at 2 ppm came out at 100%.
